Measured values as given in article PMC11566078, “Bactericidal activities and biochemical features of 16 antimicrobial peptides against bovine-mastitis causative pathogens” (Veterinary Research, 2024).
≈ marks a conversion by molar mass, not a printed value. Where two headings read alike, the source gives them in different places.

Assays:
Format in all cases: cell-based
[1] = test system: Streptococcus agalactiae ATCC 27956; assay: microbe, parasite or virus in culture; details: Streptococcus agalactiae, ATCC27956; ATCC 27956; BHI broth; WST colourimetric, 37 °C 6 h; triplicate; read-out: Minimal inhibitory concentration, Streptococcus agalactiae
Experimental: (§1) The standard bacterial strains used for antimicrobial activity assays include Staphylococcus aureus ATCC (American Type Culture Collection, Manassas, VA, USA) 6538, Bacillus cereus ATCC 10876, Enterococcus faecalis ATCC 29212, Streptococcus […] 27956, Streptococcus dysgalactiae ATCC 27957, Streptococcus equi subsp. zooepidemicus ATCC 43079, Escherichia coli ATCC 25922, and Pseudomonas aeruginosa ATCC 27853. Most bacterial strains were cultured in LB medium except for E. faecalis and streptococci, which were cultivated in brain heart infusion (BHI) broth (BD Bioscience). […] Experiments were conducted in triplicate.

[2] = test system: Escherichia coli ATCC 25922; assay: microbe, parasite or virus in culture; details: Escherichia coli, ATCC25922, 8 h, MH broth, WST colourimetric, 1.5 × 10^5 cells/well, 37 °C 6 h + 2 h reagent, A450, triplicate, read-out: Minimal inhibitory concentration, Escherichia coli
Experimental: as §1

[3] = test system: Staphylococcus aureus ATCC 6538; assay: microbe, parasite or virus in culture; details: Staphylococcus aureus, ATCC6538; ATCC 6538; MH broth; WST colourimetric, 37 °C 6 h; triplicate; read-out: Minimal inhibitory concentration, Staphylococcus aureus
Experimental: as §1

[4] = test system: Bacillus cereus ATCC 10876; assay: microbe, parasite or virus in culture; details: Bacillus cereus, ATCC10876; ATCC 10876; MH broth; WST colourimetric, 37 °C 6 h; triplicate; read-out: Minimal inhibitory concentration, Bacillus cereus
Experimental: as §1

[5] = test system: Streptococcus equi subsp. zooepidemicus ATCC 43079; assay: microbe, parasite or virus in culture; details: Streptococcus equi, ATCC43079; ATCC 43079; BHI broth; WST colourimetric, 37 °C 6 h; triplicate; read-out: Minimal inhibitory concentration, Streptococcus equi subsp. zooepidemicus
Experimental: as §1

[6] = test system: Streptococcus dysgalactiae ATCC 27957; assay: microbe, parasite or virus in culture; details: Streptococcus dysgalactiae, ATCC27957; ATCC 27957; BHI broth; WST colourimetric, 37 °C 6 h; triplicate; read-out: Minimal inhibitory concentration, Streptococcus dysgalactiae
Experimental: as §1

[7] = test system: Pseudomonas aeruginosa ATCC 27853; assay: microbe, parasite or virus in culture; details: Pseudomonas aeruginosa, ATCC27853; ATCC 27853; CAMHB; WST colourimetric, 37 °C 6 h; triplicate; read-out: Minimal inhibitory concentration, Pseudomonas aeruginosa
Experimental: as §1

[8] = test system: Enterococcus faecalis ATCC 29212; assay: microbe, parasite or virus in culture; details: Enterococcus faecalis, ATCC29212; ATCC 29212; BHI broth; WST colourimetric, 37 °C 6 h; triplicate; read-out: Minimal inhibitory concentration, Enterococcus faecalis
Experimental: as §1

[9] = test system: Staphylococcus haemolyticus; assay: MIC against field isolate from milk with high SCC; details: Staphylococcus haemolyticus, read-out: Minimal inhibitory concentration, Staphylococcus haemolyticus
Experimental: (§2) All plates were cultivated aerobically.
(§3) Experiments were conducted in triplicate.

Aeromonas hydrophila = assay: microbe, parasite or virus in culture; details: Aeromonas hydrophila; Gram-negative field isolate from milk; BHI broth; WST colourimetric, 37 °C 6 h; triplicate; read-out: Minimal inhibitory concentration, Aeromonas hydrophila
Experimental: as §2, §3

Staphylococcus xylosus = assay: microbe, parasite or virus in culture; details: Staphylococcus xylosus, read-out: Minimal inhibitory concentration, Staphylococcus xylosus
Experimental: as §2, §3

[10] = test system: Staphylococcus chromogenes; assay: microbe, parasite or virus in culture; details: Staphylococcus chromogenes, read-out: Minimal inhibitory concentration, Staphylococcus chromogenes
Experimental: as §2, §3

Streptococcus uberis = assay: microbe, parasite or virus in culture; details: Streptococcus uberis; field isolate from milk; BHI broth; WST colourimetric, 37 °C 6 h; triplicate; read-out: Minimal inhibitory concentration, Streptococcus uberis
Experimental: as §2, §3

[11] = test system: Glutamicibacter halophytocola; assay: microbe, parasite or virus in culture; details: Glutamicibacter halophytocola; field isolate from milk; BHI broth; WST colourimetric, 37 °C 6 h; triplicate; read-out: Minimal inhibitory concentration, Glutamicibacter halophytocola
Experimental: as §2, §3

[12] = test system: Staphylococcus epidermidis; assay: microbe, parasite or virus in culture; details: Staphylococcus epidermidis; field isolate from milk; WST colourimetric, 37 °C 6 h; triplicate; read-out: Minimal inhibitory concentration, Staphylococcus epidermidis
Experimental: as §2, §3

Corynebacterium simulans = assay: microbe, parasite or virus in culture; details: Corynebacterium simulans; field isolate from milk; BHI broth; WST colourimetric, 37 °C 6 h; triplicate; read-out: Minimal inhibitory concentration, Corynebacterium simulans
Experimental: as §2, §3

[13] = field isolate from milk, WST colourimetric, 37 °C 6 h, triplicate
[14] = value in brackets, Additional file 6, field isolate

SMILES | MIC [1] [µg/mL] | MIC [2] [µg/mL] | MIC [3] [µg/mL] | MIC [4] [µg/mL] | MIC [5] [µg/mL] | MIC [6] [µg/mL] | MIC [7] [µg/mL] | MIC [8] [µg/mL] | MIC [9, 13] [µg/mL] | MIC [9, 14] [µM] | MIC (Aeromonas hydrophila) [µg/mL] | MIC (Staphylococcus xylosus; [13]) [µg/mL] | MIC (Staphylococcus xylosus; [14]) [µM] | MIC [10, 13] [µg/mL] | MIC [10, 14] [µM] | MIC (Streptococcus uberis) [µg/mL] | MIC [11] [µg/mL] | MIC [12] [µg/mL] | MIC (Corynebacterium simulans) [µg/mL]
CC1(C)S[C@@H]2[C@H](NC(=O)[C@H](N)c3ccccc3)C(=O)N2[C@H]1C(=O)O [Ampicillin, reference compound] | 4 (≈ 11.4 µM) | 5 | 2 (≈ 5.72 µM) | 80 (≈ 229 µM) | 2 (≈ 5.72 µM) | 2 (≈ 5.72 µM) | > 640 | 10 (≈ 28.6 µM) | 10 | 0.0286 | > 240 | 5 | 0.0143 | 5 | 0.0143 | > 240 | 15 (≈ 42.9 µM) | 5 (≈ 14.3 µM) | > 240
O=C(N[C@H](CO)[C@H](O)c1ccc([N+](=O)[O-])cc1)C(Cl)Cl [Chloramphenicol, reference compound] | 5 (≈ 15.5 µM) | 3 | 8 (≈ 24.8 µM) | 10 (≈ 30.9 µM) | 5 (≈ 15.5 µM) | 4 (≈ 12.4 µM) | 80 (≈ 248 µM) | 10 (≈ 30.9 µM) | 10 | 0.031 | 5 (≈ 15.5 µM) | 8 | 0.0248 | 18 | 0.0558 | 50 (≈ 155 µM) | 3 (≈ 9.28 µM) | 5 (≈ 15.5 µM) | 8 (≈ 24.8 µM)
